Experimental data from the METLIN SMRT retention time set (Domingo-Almenara et al. 2019).

Assay: gradient 5% acetonitrile 3 min, to 50% in 2 min, to 85% in 15 min, held 3 min, 100 µL/min
Settings: column: Zorbax Extend-C18 2.1 x 50 mm; eluents: water / acetonitrile, 0.1% formic acid
How it was run: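 Over 3 months, pure standards in mixtures of ~100 molecules were run by HPLC coupled to a quadrupole time-of-flight mass spectrometer in positive and negative ionization mode. The column was a Zorbax Extend-C18 (2.1 × 50 mm, 1.8 μm) at 100 μL/min, eluted with water and acetonitrile each holding 0.1% formic acid, with 40 μL dead and 900 μL dwell volumes. Retention time was determined from adduct peaks chosen by software and checked manually.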

Row | SMILES | RP-LC retention time [s]
1 | COCCCNC(=O)c1cc(-c2ccc(OC)cc2)nc2n[nH]c(-c3ccc(OC)cc3)c12 | 1140
2 | COC(=O)[C@@H]1[C@H]2C[C@@H]3c4[nH]c5ccccc5c4CCN3C[C@@H]2CC[C@@H]1O | 660
3 | COc1ccc(OC)c(NC(=O)N2CCc3c(c(C(=O)N4CCCC4)nn3C)C2)c1 | 718
4 | CCCNC(=O)c1nnc(-c2ccc(S(=O)(=O)N3CCCC3)cc2)o1 | 824
5 | O=C(NCC(O)Cc1ccccc1)c1cccc(Cl)c1 (stereo not given) | 757
6 | CCOC(=O)c1ccc(NC(=O)CSc2cc(N3CCCC3)ncn2)cc1 | 828
7 | Cc1cccc2nc(-c3c(F)cccc3Cl)c(Nc3ccc4c(c3)OCCO4)n12 | 678
8 | Cc1noc2ncnc(N3CCCC(C(=O)Nc4ccc(N5CCC(C)CC5)cc4)C3)c12 (stereo not given) | 698
9 | COc1cccc(S(=O)(=O)N2C[C@@H]3C[C@H]2C[C@@H]3NC(=O)c2cccnc2)c1 | 676
10 | CC1(C(=O)NCc2ccc3c(c2)OCO3)CCN(C(=O)c2ccccc2C(F)(F)F)CC1 | 822
11 | CCOCCCNCc1ccc(-c2ccc(Cl)cc2)o1 | 687
12 | COCCCNC(=O)c1ccc2c(c1)N=C(C)c1cc(Cl)ccc1S2 | 914
13 | CN1CCN(c2nc(C(=O)NC3CCN(c4ccc(=O)n(C)n4)CC3)cs2)CC1 | 566
14 | CN(C)S(=O)(=O)c1ccc(C(=O)Nc2sc(-c3ccccc3)cc2C(N)=O)cc1 | 925
15 | COc1cc(-c2noc(-c3cn(C)c4ccc(C)cc4c3=O)n2)cc(OC)c1OC | 827
16 | CN(CCNC(=O)c1sc2ncccc2c1-n1cccc1)Cc1ccccc1 | 666
17 | Cc1cc(C)n(-c2ccc(C(=O)NCc3ccc(Cl)cc3)cn2)n1 | 990
18 | O=C(CN1CCN(C(=O)Nc2ccc(F)cc2)CC1=O)N1CCCC1 | 615
19 | O=C(NCc1ccc2c(c1)OCO2)C1CCN(C(=O)c2ccccc2)CC1 | 706
20 | Cc1ccccc1-c1nc2cnccn2c1NCCC(=O)NC1CC1 | 568
21 | O=C(O)CCC1CCCN(S(=O)(=O)c2ccc(F)cc2)C1 (stereo not given) | 782
22 | Cc1ccc(OCc2nc(-c3ccc(N4CCSCC4)nc3)no2)cc1 | 1180
23 | COc1ccccc1CN1CCc2nc(N3CCN(c4ncccn4)CC3)ncc2C1 | 716

Row | SMILES | RP-LC retention time [s]
24 | CC1CCCCN1CCN(CCC(=O)N1CCNCC1)C(=O)c1ccc(C(C)(C)C)cc1 (stereo not given) | 593
25 | COCc1nncn1C1CN(C(=O)Cc2ccc(Cl)cc2)C1 | 642
26 | O=C(Nc1ccccc1[N+](=O)[O-])C(=O)N1CCN(Cc2ccc3c(c2)OCO3)CC1 | 592
27 | CCCOCCOC(=O)C1=C(C)NC2=C(C(=O)C(C(=O)OC)C(C)C2)C1c1cccc(F)c1 (stereo not given) | 965
28 | CCOc1ccccc1-c1nc(-c2cn(-c3ccc(F)cc3)nn2)no1 | 1090
29 | CN(C)c1ccc(CNc2ncccc2-c2nnc(-c3ccccc3)o2)cc1 | 884
30 | CN(C)[C@@H](CCOc1cccc2ccccc12)c1ccccc1 | 807
31 | CC(C)CC(NC(=O)OCc1ccccc1)C(=O)NC(Cc1ccccc1)C(=O)CCl (stereo not given) | 1010
32 | CCCN1CCN(CCNC(=O)C2CCCN(c3ncc(-c4ccc(F)cc4)cn3)C2)CC1 (stereo not given) | 641
33 | Cc1ccc(NC(=O)Cn2nc(N3CCCC(C)C3)c3ccccc3c2=O)cc1C (stereo not given) | 1240
34 | O=c1n(Cc2ccccc2)nc2n1CCN(S(=O)(=O)Cc1ccccc1)CC2 | 816
35 | CN(C)CCCNC(=O)C1CCN(c2nc3ccc(-c4ccccc4)nc3s2)CC1 | 668
36 | CN1C(=O)COc2cc(-c3noc(C(=O)NCCc4ccc(S(N)(=O)=O)cc4)n3)ccc21 | 721
37 | O=C(Cc1cccs1)N1CCc2[nH]cnc2C1c1ccccc1 (stereo not given) | 612
38 | O=C(Cc1csc(-c2ccccc2)n1)Nc1nc(-c2ccc(Cl)cc2)cs1 | 1210
39 | O=C(C1CCCO1)N1N=C(c2ccc(Br)cc2)CC1c1ccco1 (stereo not given) | 892
40 | COC(=O)N1CCN(CCNC(=O)Cc2ccc(SC(C)C)cc2)CC1 | 584
41 | O=C(Nc1ccc(N2CCCCCC2)c(C(=O)O)c1)c1cccs1 | 657
42 | Cc1cc(=O)n(CC(=O)N2CCc3ccccc32)c(N2CCc3ccccc3C2)n1 | 825
43 | CCCCCC[C@@H]([C@@H](C)O)n1cnc2c(N)ncnc21 | 714
44 | CCCN(CCC)C(=O)c1cc(NC(=O)CC)cnc1N1CCNCC1 | 588
45 | CN(CC1CCCO1)S(=O)(=O)c1ccc(C(=O)Nc2ccc3sccc3c2)cc1 (stereo not given) | 891
46 | C=CCn1c(=O)c2ccccc2n(Cc2nc(-c3cccc(OC)c3)no2)c1=O | 1010

Row | SMILES | RP-LC retention time [s]
47 | CCCN1CCN(C(=O)CN(C)S(=O)(=O)c2ccc3c(c2)CCCC(=O)N3)CC1 | 577
48 | COc1ccc(-c2cc3n(n2)CCCN(C(=O)c2cccn2C)C3)cc1 | 807
49 | CCc1ccccc1NC(=O)C1CCCN(c2nc3c(s2)c(C)nn3-c2cccc(F)c2)C1 (stereo not given) | 1260
50 | O=S(=O)(c1cccnc1)N1CCC2(CC1)NCCc1c2[nH]c2ccccc12 | 640
51 | CN1C(=O)C2(CCN(C(=O)C3CCCCC3)CC2)c2ccccc21 | 899
52 | CN(Cc1cc(Br)cc(Br)c1N)C1CCCCC1 | 832
53 | Cc1nn(-c2ccccc2)c(C)c1S(=O)(=O)N1CCC(C(=O)NCCc2cccs2)CC1 | 881
54 | CC(C)n1c(N2CCN(C(=O)c3ccncc3)CC2)cc(=O)n(C(C)C)c1=O | 601
55 | O=C(Nc1ccccc1F)C1CCCN(S(=O)(=O)c2c[nH]c(C(=O)N3CCCC3)c2)C1 (stereo not given) | 772
56 | O=C(NCc1ccc(F)cc1F)c1ccc2c(c1)ncn2CCN1CCCC1 | 576
57 | COc1cc(NC(=O)C2CCN(S(=O)(=O)c3cn(C(C)C)cn3)CC2)cc(OC)c1 | 751
58 | CC(C)NC(=O)c1ccc(OCC2CCCN(C(=O)c3cccs3)C2)cc1 (stereo not given) | 818
59 | COc1cccc(C(=O)N2CCC3(CC2)NC(=O)c2ccccc2N3C)c1 | 718
60 | CCn1cc(S(=O)(=O)N2CCc3ccccc3C2)c2cccnc21 | 950
61 | O=C1OC(c2ccccc2)=N/C1=C\c1ccc(N(CCCl)CCCl)cc1 | 1240
62 | CN1C(=O)COc2ccc(-c3csc(NC(=O)c4ccc(Br)cc4)n3)cc21 | 1040
63 | COc1ccc(CNC(=O)c2ccc3[nH]c4c(c3c2)CN(C(C)=O)CC4)c(OC)c1 | 680
64 | CCn1nc(CNC(=O)C(C)Oc2ccccc2OC)c2ccccc21 (stereo not given) | 810
65 | CCOCCCNC(=O)C1CCN(c2nnc3c(Cl)cccn23)CC1 | 610
66 | CCOc1ccc(S(=O)(=O)N2CCCC(C(=O)Nc3cc(C)ccc3OC)C2)cc1 (stereo not given) | 1090
67 | COc1ccccc1-c1noc(Cn2ncn3nc(-c4ccc(Br)cc4)cc3c2=O)n1 | 1110
68 | O=C(NC1CC1)c1cn(-c2ccc(-c3nc(C4CC4)no3)cn2)cn1 | 762
69 | CCOc1ccc(C(=O)N2CCN(c3cnn4c(C5CC5)nnc4c3)CC2)cc1 | 659

Row | SMILES | RP-LC retention time [s]
70 | CCCS(=O)(=O)NCc1ccc2c(c1)CCN2C(=O)c1ccc(Cl)cc1 | 918
71 | CC(C)c1noc(C2CCCCN2Cc2cc(F)cc(F)c2)n1 (stereo not given) | 1170
72 | CCOc1ccc(NC(=O)CSc2ccc(N3CCCC(C(=O)NC4CC4)C3)nn2)cc1 (stereo not given) | 652
73 | CCn1ccc2c(cc(C(=O)Nc3cc(C)c(Cl)cc3OC)n2C)c1=O | 933
74 | COC(=O)c1cccc(C(=O)Nc2ccc(Cl)cc2C)n1 | 971
75 | Cc1ccccc1Nc1c(-c2ccccc2O)nc2cccc(C)n12 | 676
76 | Cc1cccc(Sc2nccnc2N2CCCC(C(=O)N3CCCC3)C2)c1 (stereo not given) | 1010
77 | CC(=O)N1CCC(Cc2noc(C3CC3)n2)C1 (stereo not given) | 625
78 | Cc1ccc(CNc2c(-c3cccc(Cl)c3)nc3ncccn23)cc1 | 901
79 | Cc1ccc(-c2nc(Nc3cccc(Cl)c3)sc2C)cc1 | 1320
80 | COC(=O)c1c(C)[nH]c(C(=O)N2CCCC(C(=O)NCc3ccc4c(c3)OCO4)C2)c1C (stereo not given) | 720
81 | CNc1nc(N2CCCCCC2)nc(-n2cnc(SC)n2)n1 | 685
82 | CCCCC(=O)N1CCCC(C)C1 (stereo not given) | 878
83 | CC(C)n1cnc(S(=O)(=O)N2CCC(C(=O)NCc3cccs3)CC2)c1 | 701
84 | Cn1cc(CN2CCC(C(=O)NCc3ccc(F)cc3)CC2)c2cc(Cl)ccc21 | 716
85 | CCCCN1C(=O)C(C)(C(=O)NCc2cc(F)cc(F)c2)Oc2cccnc21 (stereo not given) | 1020
86 | COc1ccccc1CNC(=O)C1CN(C(=O)c2cccs2)CC12CCCCC2 (stereo not given) | 912
87 | CCCCNc1nnc(-c2nnc(C)o2)c2ccccc12 | 637
88 | COc1cccc(Cn2nnc(C(=O)O)c2C(C)C)c1 | 694
89 | COc1ccccc1-c1nc(-c2ccc3c(c2)oc(=O)n3C(C)C)no1 | 1090
90 | CSc1cccc(NC(=O)C2CCCN(c3cnc4nc(C)c(C)nc4c3)C2)c1 (stereo not given) | 807
